Results from ChEMBL document CHEMBL1201862, “PubChem BioAssay data set” (2004).
The source made the active and inactive calls.

What was measured:
Format in all cases: functional
[1] = biological target: Dual specificity mitogen-activated protein kinase kinase 2 (Homo sapiens, UniProt P36507); assay: Navigating the Kinome. Panel member name: MAP2K2
Focal adhesion kinase 1 = Focal adhesion kinase 1 (Homo sapiens, UniProt Q05397);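 also: measured as one member of a kinome panel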
[2] = biological target: BDNF/NT-3 growth factors receptor (Homo sapiens, UniProt Q16620);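 also: NTRK2 measured as one member of a broad kinome-wide kinase profiling panel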
Chain of BDNF/NT-3 growth factors receptor (Q16620 whole entry): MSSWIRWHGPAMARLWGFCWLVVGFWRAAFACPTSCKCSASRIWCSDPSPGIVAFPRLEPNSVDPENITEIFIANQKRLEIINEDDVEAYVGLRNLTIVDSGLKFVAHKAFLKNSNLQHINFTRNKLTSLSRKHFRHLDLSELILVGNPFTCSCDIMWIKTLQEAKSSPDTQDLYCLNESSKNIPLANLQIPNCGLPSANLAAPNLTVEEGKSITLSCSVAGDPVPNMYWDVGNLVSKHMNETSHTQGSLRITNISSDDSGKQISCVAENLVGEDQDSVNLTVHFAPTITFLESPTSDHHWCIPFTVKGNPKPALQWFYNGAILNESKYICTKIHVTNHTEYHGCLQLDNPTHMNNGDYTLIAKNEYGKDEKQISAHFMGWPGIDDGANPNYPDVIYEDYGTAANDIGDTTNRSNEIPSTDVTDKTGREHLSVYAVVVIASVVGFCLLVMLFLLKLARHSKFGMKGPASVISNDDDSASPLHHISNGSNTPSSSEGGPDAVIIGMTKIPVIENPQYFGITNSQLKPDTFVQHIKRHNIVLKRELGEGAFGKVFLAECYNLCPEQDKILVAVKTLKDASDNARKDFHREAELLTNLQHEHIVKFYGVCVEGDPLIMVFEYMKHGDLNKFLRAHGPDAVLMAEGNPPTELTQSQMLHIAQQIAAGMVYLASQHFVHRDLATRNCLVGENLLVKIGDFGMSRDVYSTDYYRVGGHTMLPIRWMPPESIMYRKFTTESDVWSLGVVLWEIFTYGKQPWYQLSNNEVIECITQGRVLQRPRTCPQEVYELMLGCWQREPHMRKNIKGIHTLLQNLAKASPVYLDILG

[3] = biological target: Dual specificity tyrosine-phosphorylation-regulated kinase 1A (Homo sapiens, UniProt Q13627);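 also: measured against DYRK1A as one member of a broad kinome profiling panel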
[4] = biological target: 5'-AMP-activated protein kinase catalytic subunit alpha-1 (Homo sapiens, UniProt Q13131)
Chain of 5'-AMP-activated protein kinase catalytic subunit alpha-1 (Q13131 whole entry): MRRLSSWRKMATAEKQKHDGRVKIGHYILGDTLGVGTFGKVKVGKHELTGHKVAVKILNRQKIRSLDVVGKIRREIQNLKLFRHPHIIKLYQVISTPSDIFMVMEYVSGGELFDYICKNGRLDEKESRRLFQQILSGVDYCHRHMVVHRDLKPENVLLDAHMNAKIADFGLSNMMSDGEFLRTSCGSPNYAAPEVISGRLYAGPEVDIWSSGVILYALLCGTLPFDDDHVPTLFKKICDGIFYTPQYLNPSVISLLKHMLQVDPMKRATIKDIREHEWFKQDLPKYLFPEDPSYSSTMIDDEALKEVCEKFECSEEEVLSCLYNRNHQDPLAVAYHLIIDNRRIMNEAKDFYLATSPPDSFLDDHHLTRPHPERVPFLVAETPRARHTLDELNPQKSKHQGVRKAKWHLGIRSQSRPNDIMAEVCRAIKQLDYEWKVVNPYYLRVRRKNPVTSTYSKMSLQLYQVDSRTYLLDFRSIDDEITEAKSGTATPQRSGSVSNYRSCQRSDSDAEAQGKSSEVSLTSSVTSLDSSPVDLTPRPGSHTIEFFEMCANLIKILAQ

[5] = biological target: Macrophage-stimulating protein receptor (Homo sapiens, UniProt Q04912); assay: Navigating the Kinome. Panel member name: MST1R
Chain of Macrophage-stimulating protein receptor (Q04912 25-304 limits assumed): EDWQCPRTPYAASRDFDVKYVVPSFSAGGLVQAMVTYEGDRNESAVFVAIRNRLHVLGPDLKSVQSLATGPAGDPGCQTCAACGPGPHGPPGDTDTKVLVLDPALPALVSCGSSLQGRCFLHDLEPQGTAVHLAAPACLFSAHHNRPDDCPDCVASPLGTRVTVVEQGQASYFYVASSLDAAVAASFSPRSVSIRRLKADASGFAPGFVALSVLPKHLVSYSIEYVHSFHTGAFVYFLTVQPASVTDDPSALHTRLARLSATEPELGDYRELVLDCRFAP
Chain of Macrophage-stimulating protein receptor (Q04912 310-1400 limits assumed): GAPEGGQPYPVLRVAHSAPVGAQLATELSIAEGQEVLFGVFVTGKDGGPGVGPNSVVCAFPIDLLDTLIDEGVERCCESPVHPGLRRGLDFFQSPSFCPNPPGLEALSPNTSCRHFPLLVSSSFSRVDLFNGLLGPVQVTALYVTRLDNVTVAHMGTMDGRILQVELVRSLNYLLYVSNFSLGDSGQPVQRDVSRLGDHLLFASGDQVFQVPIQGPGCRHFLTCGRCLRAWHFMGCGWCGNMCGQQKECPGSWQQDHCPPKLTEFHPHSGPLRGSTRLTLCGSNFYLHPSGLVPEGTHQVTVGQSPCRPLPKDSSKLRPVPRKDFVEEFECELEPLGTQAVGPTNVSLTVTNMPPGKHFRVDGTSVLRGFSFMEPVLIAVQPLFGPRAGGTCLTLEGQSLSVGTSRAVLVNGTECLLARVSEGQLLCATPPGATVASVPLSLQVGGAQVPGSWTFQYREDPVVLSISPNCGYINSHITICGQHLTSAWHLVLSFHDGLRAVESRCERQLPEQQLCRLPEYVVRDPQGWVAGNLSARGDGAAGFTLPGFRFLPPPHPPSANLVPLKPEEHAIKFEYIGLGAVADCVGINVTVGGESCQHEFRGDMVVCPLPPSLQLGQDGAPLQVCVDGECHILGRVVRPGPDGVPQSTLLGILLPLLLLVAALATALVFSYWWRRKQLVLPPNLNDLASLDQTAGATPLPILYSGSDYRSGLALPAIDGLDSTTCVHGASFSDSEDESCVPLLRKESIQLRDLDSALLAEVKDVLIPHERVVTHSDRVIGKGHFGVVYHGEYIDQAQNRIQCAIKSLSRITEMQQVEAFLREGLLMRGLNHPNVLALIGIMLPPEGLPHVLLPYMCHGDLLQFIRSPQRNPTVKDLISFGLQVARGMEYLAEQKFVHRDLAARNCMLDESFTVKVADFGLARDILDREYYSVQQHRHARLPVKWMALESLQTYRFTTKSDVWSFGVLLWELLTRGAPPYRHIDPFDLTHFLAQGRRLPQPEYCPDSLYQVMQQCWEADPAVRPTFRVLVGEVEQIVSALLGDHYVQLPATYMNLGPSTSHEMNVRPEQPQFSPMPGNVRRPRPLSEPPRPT

[6] = biological target: Ribosomal protein S6 kinase alpha-3 (Homo sapiens, UniProt P51812);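 also: measured within a kinome-wide profiling panel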
[7] = biological target: T1, Receptor-type tyrosine-protein kinase FLT3 (Homo sapiens, UniProt P36888);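 also: FLT3 was tested as one member of a kinome-wide kinase panel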
T1 sequence (P36888 whole entry): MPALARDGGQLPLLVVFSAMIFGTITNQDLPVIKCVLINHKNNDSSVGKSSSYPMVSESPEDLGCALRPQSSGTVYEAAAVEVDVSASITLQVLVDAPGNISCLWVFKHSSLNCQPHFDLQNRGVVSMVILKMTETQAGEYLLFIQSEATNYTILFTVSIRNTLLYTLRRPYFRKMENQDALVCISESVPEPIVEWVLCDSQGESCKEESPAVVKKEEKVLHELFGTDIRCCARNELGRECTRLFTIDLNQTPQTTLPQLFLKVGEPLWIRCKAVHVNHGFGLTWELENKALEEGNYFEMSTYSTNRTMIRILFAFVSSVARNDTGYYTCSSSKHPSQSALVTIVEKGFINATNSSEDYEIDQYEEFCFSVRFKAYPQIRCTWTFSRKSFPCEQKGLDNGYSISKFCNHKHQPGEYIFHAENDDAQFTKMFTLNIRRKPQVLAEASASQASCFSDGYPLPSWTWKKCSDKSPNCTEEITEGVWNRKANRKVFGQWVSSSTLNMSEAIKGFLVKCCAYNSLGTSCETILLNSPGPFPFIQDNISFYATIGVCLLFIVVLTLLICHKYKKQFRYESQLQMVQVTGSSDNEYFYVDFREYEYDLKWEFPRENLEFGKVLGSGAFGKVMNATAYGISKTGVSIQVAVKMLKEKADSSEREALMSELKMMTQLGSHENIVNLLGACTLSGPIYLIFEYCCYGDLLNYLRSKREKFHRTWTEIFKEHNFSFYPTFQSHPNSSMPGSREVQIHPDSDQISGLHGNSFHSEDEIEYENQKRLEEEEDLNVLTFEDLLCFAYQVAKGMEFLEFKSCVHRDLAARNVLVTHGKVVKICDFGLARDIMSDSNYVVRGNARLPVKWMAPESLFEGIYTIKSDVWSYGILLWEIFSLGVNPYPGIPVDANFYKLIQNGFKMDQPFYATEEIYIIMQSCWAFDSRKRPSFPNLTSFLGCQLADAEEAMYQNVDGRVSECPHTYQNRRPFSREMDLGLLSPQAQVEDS

[8] = biological target: T2, Serine/threonine-protein kinase D3 (Homo sapiens, UniProt O94806);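 also: determined within a kinase panel screen, with PRKCN as the panel member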
T2 sequence (O94806 whole entry): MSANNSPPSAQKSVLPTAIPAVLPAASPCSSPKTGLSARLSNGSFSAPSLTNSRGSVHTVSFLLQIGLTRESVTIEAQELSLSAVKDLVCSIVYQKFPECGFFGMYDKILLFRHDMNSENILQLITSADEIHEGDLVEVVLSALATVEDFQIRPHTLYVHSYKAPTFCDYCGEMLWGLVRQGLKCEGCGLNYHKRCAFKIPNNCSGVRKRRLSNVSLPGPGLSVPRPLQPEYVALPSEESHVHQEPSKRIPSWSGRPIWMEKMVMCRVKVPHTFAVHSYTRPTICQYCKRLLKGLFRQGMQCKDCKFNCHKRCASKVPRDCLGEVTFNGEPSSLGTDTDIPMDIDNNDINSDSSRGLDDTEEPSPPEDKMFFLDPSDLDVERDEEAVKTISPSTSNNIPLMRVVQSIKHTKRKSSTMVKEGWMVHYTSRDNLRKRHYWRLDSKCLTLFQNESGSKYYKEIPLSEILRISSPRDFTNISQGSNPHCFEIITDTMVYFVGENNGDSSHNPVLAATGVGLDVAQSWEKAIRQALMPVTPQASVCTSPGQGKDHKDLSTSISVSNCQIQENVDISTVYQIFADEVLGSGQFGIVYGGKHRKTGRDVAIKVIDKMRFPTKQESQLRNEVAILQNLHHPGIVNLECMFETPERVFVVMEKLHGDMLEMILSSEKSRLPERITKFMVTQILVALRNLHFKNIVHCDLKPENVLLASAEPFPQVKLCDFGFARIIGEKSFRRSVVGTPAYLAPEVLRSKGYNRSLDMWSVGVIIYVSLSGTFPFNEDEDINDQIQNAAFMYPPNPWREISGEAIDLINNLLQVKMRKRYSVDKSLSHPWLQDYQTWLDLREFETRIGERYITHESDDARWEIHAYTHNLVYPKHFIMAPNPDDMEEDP

[9] = biological target: Mitogen-activated protein kinase 9 (Homo sapiens, UniProt P45984);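 also: value from a kinome panel profiling assay, MAPK9 panel entry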
Chain of Mitogen-activated protein kinase 9 (P45984 whole entry): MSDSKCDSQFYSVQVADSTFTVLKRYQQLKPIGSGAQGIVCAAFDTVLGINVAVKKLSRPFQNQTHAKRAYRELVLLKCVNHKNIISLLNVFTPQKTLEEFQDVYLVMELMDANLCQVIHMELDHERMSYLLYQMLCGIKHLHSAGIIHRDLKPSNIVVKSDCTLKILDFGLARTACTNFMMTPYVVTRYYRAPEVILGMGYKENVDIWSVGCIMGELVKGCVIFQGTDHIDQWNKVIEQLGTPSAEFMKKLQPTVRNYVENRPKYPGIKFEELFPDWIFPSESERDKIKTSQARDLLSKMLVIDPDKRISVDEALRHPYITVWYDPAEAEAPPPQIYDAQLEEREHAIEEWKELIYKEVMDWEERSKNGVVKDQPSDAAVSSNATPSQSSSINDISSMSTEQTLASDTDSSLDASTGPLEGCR

[10] = biological target: Leucine-rich repeat serine/threonine-protein kinase 2 (Homo sapiens, UniProt Q5S007);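 also: value from a broad kinome-wide panel profiling study in which LRRK2 was one of the kinases tested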

Chain of Focal adhesion kinase 1 (Q05397 whole entry): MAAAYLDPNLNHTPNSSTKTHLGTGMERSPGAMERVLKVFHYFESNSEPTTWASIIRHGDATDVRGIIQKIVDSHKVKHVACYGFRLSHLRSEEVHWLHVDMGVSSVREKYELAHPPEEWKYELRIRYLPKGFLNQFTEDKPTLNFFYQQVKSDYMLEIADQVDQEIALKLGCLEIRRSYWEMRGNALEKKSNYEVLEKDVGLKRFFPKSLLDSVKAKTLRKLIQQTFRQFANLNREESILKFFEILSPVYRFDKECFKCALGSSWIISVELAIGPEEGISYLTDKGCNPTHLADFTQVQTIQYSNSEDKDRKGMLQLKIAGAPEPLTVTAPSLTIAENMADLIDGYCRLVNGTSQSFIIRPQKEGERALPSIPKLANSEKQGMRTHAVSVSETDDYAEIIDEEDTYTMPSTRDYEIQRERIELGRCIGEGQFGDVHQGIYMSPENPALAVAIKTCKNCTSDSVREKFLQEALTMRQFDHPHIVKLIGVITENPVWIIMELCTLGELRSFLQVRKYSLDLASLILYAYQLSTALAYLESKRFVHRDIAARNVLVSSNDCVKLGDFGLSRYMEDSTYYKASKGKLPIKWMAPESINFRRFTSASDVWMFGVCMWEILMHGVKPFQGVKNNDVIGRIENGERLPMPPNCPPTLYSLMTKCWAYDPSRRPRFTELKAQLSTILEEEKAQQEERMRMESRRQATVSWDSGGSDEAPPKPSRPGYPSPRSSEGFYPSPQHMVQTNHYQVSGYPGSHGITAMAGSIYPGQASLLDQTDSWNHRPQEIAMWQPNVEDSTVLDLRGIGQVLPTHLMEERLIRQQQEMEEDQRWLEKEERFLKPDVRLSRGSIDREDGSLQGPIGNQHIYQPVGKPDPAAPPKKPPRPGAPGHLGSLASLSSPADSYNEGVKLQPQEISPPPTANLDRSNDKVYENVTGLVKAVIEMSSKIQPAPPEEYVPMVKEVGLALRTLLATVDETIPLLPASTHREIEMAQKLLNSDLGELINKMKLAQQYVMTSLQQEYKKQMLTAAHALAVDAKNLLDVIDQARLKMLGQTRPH
Chain of Dual specificity mitogen-activated protein kinase kinase 2 (P36507 whole entry): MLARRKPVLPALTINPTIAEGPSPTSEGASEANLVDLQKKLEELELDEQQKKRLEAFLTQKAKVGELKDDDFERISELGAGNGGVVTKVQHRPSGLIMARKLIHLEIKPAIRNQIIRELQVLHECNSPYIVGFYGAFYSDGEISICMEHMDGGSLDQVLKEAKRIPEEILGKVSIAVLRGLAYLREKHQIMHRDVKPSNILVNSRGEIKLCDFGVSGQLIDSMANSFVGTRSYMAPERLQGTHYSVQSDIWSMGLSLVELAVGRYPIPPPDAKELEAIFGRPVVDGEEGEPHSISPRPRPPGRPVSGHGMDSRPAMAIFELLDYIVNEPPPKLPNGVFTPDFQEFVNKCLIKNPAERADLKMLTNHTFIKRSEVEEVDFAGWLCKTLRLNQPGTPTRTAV

CN1CCC(c2c(O)cc(O)c3c(=O)cc(-c4ccccc4Cl)oc23)C(O)C1 (stereo not drawn)
Ki [1]: > 3980 nM (inactive) | Ki (Focal adhesion kinase 1): > 3980 nM (inactive) | Ki [2]: > 3980 nM (inactive) | Ki [3]: 794 nM (active) | Ki [4]: > 2510 nM (inactive) | Ki [5]: > 3980 nM (inactive) | Ki [6]: 1260 nM (active) | Ki [7]: > 2510 nM (inactive) | Ki [8]: 316 nM (active) | Ki [9]: > 3980 nM (inactive) | Ki [10]: 1000 nM (active)

Cc1ccc(C)c(NC(=O)c2cc(-c3ccco3)nc3ccccc23)c1
Ki [1]: 3160 nM (active) | Ki (Focal adhesion kinase 1): 3160 nM (active) | Ki [2]: > 3980 nM (inactive) | Ki [3]: 631 nM (active) | Ki [4]: 2000 nM (active) | Ki [5]: 3980 nM (active) | Ki [6]: 3160 nM (active) | Ki [7]: > 3160 nM (inactive) | Ki [8]: 1580 nM (active) | Ki [9]: > 3980 nM (inactive) | Ki [10]: 1580 nM (active)

COc1ccc(C2=NNc3cccc4c(OC)ccc2c34)cc1OC
Ki [1]: > 3980 nM (inactive) | Ki (Focal adhesion kinase 1): 794 nM (active) | Ki [2]: > 3980 nM (inactive) | Ki [3]: 79.4 nM (active) | Ki [4]: 794 nM (active) | Ki [5]: 501 nM (active) | Ki [6]: 1580 nM (active) | Ki [7]: 2510 nM (active) | Ki [8]: 398 nM (active) | Ki [9]: 3160 nM (active) | Ki [10]: 251 nM (active)
